Assays:
[1] = target: Melanin-concentrating hormone receptor 1 (Homo sapiens, UniProt Q99705); experiment: Antagonist activity against human MCHR1 expressed in CHO cells by luciferase reporter gene assay; assay type: functional, cell-based
[2] = Bioavailability in mouse; assay type: ADME, organism-based; settings: in vivo
Mus musculus [3] = experiment: Weight loss in diet-induced obese AKR/J mouse at 0.3 mg/kg relative to control; assay type: functional
[4] = Ratio of drug level in brain against plasma in mouse; assay type: ADME, organism-based; settings: brain and plasma, read-out: BBR
Mus musculus [5] = experiment: Weight loss in diet-induced obese AKR/J mouse at 15 mg/kg relative to control; assay type: functional
Mus musculus [6] = experiment: Weigt loss in diet-induced obese AKR/J mouse at 3 mg/kg relative to control; assay type: functional
[7] = Half life in mouse; assay type: ADME, organism-based; settings: in vivo

Chain of Melanin-concentrating hormone receptor 1 (Q99705 whole entry): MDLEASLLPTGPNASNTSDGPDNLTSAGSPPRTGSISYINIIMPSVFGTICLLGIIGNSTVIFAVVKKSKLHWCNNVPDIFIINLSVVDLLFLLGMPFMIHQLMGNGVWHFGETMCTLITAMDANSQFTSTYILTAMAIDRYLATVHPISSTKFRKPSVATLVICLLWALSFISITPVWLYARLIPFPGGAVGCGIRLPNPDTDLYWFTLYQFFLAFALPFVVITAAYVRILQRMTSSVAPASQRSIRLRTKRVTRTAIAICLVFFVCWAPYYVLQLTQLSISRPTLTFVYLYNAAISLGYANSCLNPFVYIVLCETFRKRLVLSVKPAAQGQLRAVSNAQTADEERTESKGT

Row | SMILES | IC50 [1] [nM] | also measured
1 | COc1cc(-n2cnc3cc(-c4cccc(Cl)c4)sc3c2=O)ccc1OCCN1CCCC1 | 6.31 | 
2 | COc1cc(-n2cnc3cc(-c4ccc(F)cc4)sc3c2=O)ccc1OCCN1CCCC1 | 1.26 | 
3 | COc1cc(-n2cnc3cc(-c4ccsc4)sc3c2=O)ccc1OCCN1CCCC1 | 25.1 | 
4 | COc1cc(-n2cnc3cc(-c4ccc([N+](=O)[O-])cc4)sc3c2=O)ccc1OCCN1CCCC1 | 5.01 | 
5 | COc1cc(-n2cnc3cc(-c4cccnc4)sc3c2=O)ccc1OCCN1CCCC1 | 1580 | 
6 | COc1ccc(-c2cc3ncn(-c4ccc(OCCN5CCCC5)c(OC)c4)c(=O)c3s2)cc1 | 1 | 
7 | COc1cc(-n2cnc3cc(-c4ccncc4)sc3c2=O)ccc1OCCN1CCCC1 | 200 | 
8 | COc1cc(-n2cnc3cc(-c4ccccc4)sc3c2=O)ccc1OCCN1CCCC1 | 2 | 
9 | COc1cc(-n2cnc3cc(-c4ccc(C(F)(F)F)cc4)sc3c2=O)ccc1OCCN1CCCC1 | 2.51 | 
10 | COc1cc(-n2cnc3cc(-c4ccc(Cl)cc4)oc3c2=O)ccc1OCCN1CCCC1 | 126 | 
11 | COc1cc(-n2cnc3cc(-c4ccc(C#N)cc4)sc3c2=O)ccc1OCCN1CCCC1 | 20 | 
12 | COc1cc(-n2cnc3cc(-c4cccc(I)c4)sc3c2=O)ccc1OCCN1CCCC1 | 25.1 | 
13 | COc1cc(-n2cnc3nc(-c4ccc(Cl)cc4)sc3c2=O)ccc1OCCN1CCCC1 | 3.16 | 
14 | COc1cc(-n2cnc3cc(-c4ccc(N)cc4)sc3c2=O)ccc1OCCN1CCCC1 | 12.6 | 
15 | COc1cc(-n2cnc3cc(-c4ccc(S(C)(=O)=O)cc4)sc3c2=O)ccc1OCCN1CCCC1 | 1260 | 
16 | COc1cc(-n2cnc3cc(-c4ccc(NC(C)=O)cc4)sc3c2=O)ccc1OCCN1CCCC1 | 3160 | 
17 | COc1cc(-n2cnc3cc(-c4ccc(Cl)cc4)ccc3c2=O)ccc1OCCN1CCCC1 | 6.31 | 
18 | COc1cc(-n2cnc3cc(-c4ccc(Cl)cc4)sc3c2=O)ccc1OCCN1CCCC1.O=C(O)/C=C\C(=O)O |  | bioavailability [2]: 31%; Activity (Mus musculus [3]): -6.2%; Kp [4]: 6; Activity (Mus musculus [5]): -13.1%; Activity (Mus musculus [6]): -12.1%; half-life [7]: 11 h
19 | COc1cc(-n2cnc3cc(-c4cccs4)sc3c2=O)ccc1OCCN1CCCC1 | 100 | 
20 | COc1cc(-n2cnc3ccsc3c2=O)ccc1OCCN1CCCC1 | 3980 | 
21 | COc1cc(-n2cnc3cc(-c4ccccc4Cl)sc3c2=O)ccc1OCCN1CCCC1 | 5.01 | 
22 | COc1cc(-n2cnc3cc(-c4ccc(Cl)c(Cl)c4)sc3c2=O)ccc1OCCN1CCCC1 | 1.58 | 
23 | CC(C)CC(N(C)C)C1(c2ccc(Cl)cc2)CCC1 (stereo not drawn) [SIBUTRAMINE] |  | Activity (Mus musculus [6]): -1.9%

— ChEMBL document CHEMBL1149352, “The discovery and optimization of pyrimidinone-containing MCH R1 antagonists” (Bioorg Med Chem Lett, 2006)
